Patent publication US7423054B2, “Therapeutic pyrazolo[3,4-b]pyridines and indazoles” (Warner Lambert Company LLC, priority 2004, dated 2008)
Where a name gives a salt, the structure may show the parent alone. Read-outs that look alike come from different tables or passages of the source.

Legend:
[1] = test system: capsaicin-induced mechanical allodynia; test: Rat model of capsaicin-induced mechanical allodynia (paw withdrawal threshold, Von Frey); assay type: in vivo; conditions: for inhibition in vivo at 10 mg/kg: Rattus norvegicus, po, 2 h, read-out: % inhibition +/− SEM
Protocol: In certain embodiments, the compounds of formula I may be assayed for their ability to alleviate capsaicin-induced mechanical allodynia in a rat (e.g., Sluka, K A, (2002) J of Neuroscience, 22(13): 5687-5693). For example, a rat model of capsaicin-induced mechanical allodynia) can be carried out as follows:
On day 0, male Sprague-Dawley rats (˜150 g) in the dark cycle are placed in suspended wire-bottom cages and allowed to acclimate for 0.5 h in a darkened, quiet room. The day 0 paw withdrawal threshold (PWT) is determined on the left hind paw by Von Frey hair assessment using the Dixon up and down method. After assessment, the plantar muscle of the right hind paw is injected with 100 μl capsaicin (0.25% in 10% ethanol, 10% Tween 80, in sterile saline). On day 6 the PWT of the left hindpaw (contralateral from injection site) is determined for each animal. Animals from the day 6 prereads with PWT≦11.7 g are considered allodynic responders and are regrouped so that each cage had similar mean PWT values. On day 7, responders are dosed (e.g., orally, intraperitoneally, and subcutaneously, etc.) with 10 ml/kg vehicle (0.5% HPMC(hydroxy-propylmethylcellulose)/0.2% Tween™ 80), or vehicle plus compound. The contralateral PWT values are determined at 2 hours (or at about the time corresponding to the estimated Cmax) after the single dose, with the investigator blinded to the dosing scheme. Those of skill in the art can determine the appropriate time to determine the contralateral PWT value (e.g., 1 hour, 2 hours, etc.).
For each animal, the day 6 PWT value is subtracted from the 2 hour PWT value to give a delta PWT value that represents the change in PWT due to the 2 hour drug treatment. In addition, the day 6 PWT is subtracted from the day 0 PWT to give the baseline window of allodynia present in each animal. To determine % inhibition of allodynia of each animal normalized for vehicle controls, the following formula is used: % Inhibition of Allodynia=100×(Delta PWT(drug)−mean Delta PWT(vehicle))/(Baseline−mean Delta PWT(vehicle)). Pharmaceutically Acceptable Salts and Solvates
Compounds of the present invention may be assayed for their ability to alleviate capsaicin-induced mechanical allodynia in a rat model (e.g., Sluka (2002) J of Neuroscience, 22(13)5687-5693). For example, a rat model of capsaicin-induced mechanical allodynia was carried out as follows:
On day 0, male Sprague-Dawley rats (˜150 g) in the dark cycle were placed in suspended wire-bottom cages and allowed to acclimate for 0.5 hour in a darkened, quiet room. The day 0 paw withdrawal threshold (PWT) was determined on the left hind paw by Von Frey hair assessment using the Dixon up and down method. After assessment, the plantar muscle of the right hind paw was injected with 100 μl capsaicin (0.25% (w/v) in 10% ethanol, 10% Tween 80, in sterile saline). On day 6 the PWT of the left hindpaw (contralateral from injection site) was determined for each animal. Animals from the day 6 prereads with PWT≦11.7 g were considered allodynic responders and were regrouped so that each cage had similar mean PWT values.
On day 7, responders were dosed subcutaneously with 30 mg of the compound of Example 7/kg body weight, 10 mg of the compound of the compound of Example 48/kg body weight, or with vehicle alone. The vehicle was phosphate buffered saline containing 2% Cremophor®) EL (BASF).
For the animals dosed with the compound of Example 7, the contralateral PWT values were determined at 2 hour after the single dose, with the investigator blinded to the dosing scheme.
For each animal, the day 6 PWT value was subtracted from the 2 hour PWT value for the 10 mg/kg doses to give a delta PWT value that represents the change in PWT due to the […] drug treatment. In addition, the day 6 PWT was subtracted from the day 0 PWT to give the baseline window of allodynia present in each animal. […]

[2] = target: T1, human serotonin transporter (hSERT) (Homo sapiens, UniProt P31645); test: hSERT receptor binding ([125I]-RTI-55 displacement, membranes of transfected HEK-293 cells); conditions: HEK-293 membranes, Ki from IC50 by Cheng-Prusoff, read-out: SERT Ki
T1 construct: expressed in transfected cells; host or cells: HEK-293 cells (membrane preparation)
In short: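 Membranes from HEK-293 cells expressing human SERT were incubated 90 min at room temperature in Krebs-HEPES (pH 7.4) with 50 pM [125I]-RTI-55 and compound (10^-12 to 10^-5 M), in duplicate. Nonspecific binding was defined with 10 μM citalopram. Ki from IC50 by Cheng-Prusoff.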

[3] = target: T2, human norepinephrine transporter (hNET) (Homo sapiens, UniProt P23975); test: hNET receptor binding ([125I]-RTI-55 displacement, membranes of transfected HEK-293 cells); conditions: HEK-293 membranes, Ki from IC50 by Cheng-Prusoff, read-out: NET Ki
T2 construct: expressed in transfected cells; host or cells: HEK-293 cells (membrane preparation)
In short: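 Membranes from HEK-293 cells expressing human NET were incubated 90 min at room temperature with 50 pM [125I]-RTI-55 and compound (10^−5 to 10^−12 M) in Krebs-HEPES buffer, pH 7.4. Bound radioligand was counted after filtration, with nonspecific binding defined by 10 μM desipramine. IC50 was converted to Ki by Cheng-Prusoff.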

[4] = male Sprague-Dawley rats, oral single dose 10 mg/kg, contralateral PWT at 2 hours after dose, mean of eight animals

T2 sequence (P23975 whole entry): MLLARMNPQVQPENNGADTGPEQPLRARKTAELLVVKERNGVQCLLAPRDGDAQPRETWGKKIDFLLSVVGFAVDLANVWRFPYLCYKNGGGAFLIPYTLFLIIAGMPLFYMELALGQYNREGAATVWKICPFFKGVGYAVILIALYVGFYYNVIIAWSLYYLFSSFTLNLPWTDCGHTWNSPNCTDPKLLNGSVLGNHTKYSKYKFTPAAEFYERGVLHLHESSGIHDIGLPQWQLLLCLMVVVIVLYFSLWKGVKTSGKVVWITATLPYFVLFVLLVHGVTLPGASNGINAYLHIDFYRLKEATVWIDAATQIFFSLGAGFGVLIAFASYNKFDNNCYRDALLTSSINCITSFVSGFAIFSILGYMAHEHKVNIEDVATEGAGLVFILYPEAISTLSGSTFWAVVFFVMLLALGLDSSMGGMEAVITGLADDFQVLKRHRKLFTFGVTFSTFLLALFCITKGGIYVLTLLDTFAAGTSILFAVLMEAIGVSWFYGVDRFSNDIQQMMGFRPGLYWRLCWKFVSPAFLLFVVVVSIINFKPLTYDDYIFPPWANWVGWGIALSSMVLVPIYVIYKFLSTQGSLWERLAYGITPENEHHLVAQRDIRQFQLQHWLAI
T1 sequence (P31645 whole entry): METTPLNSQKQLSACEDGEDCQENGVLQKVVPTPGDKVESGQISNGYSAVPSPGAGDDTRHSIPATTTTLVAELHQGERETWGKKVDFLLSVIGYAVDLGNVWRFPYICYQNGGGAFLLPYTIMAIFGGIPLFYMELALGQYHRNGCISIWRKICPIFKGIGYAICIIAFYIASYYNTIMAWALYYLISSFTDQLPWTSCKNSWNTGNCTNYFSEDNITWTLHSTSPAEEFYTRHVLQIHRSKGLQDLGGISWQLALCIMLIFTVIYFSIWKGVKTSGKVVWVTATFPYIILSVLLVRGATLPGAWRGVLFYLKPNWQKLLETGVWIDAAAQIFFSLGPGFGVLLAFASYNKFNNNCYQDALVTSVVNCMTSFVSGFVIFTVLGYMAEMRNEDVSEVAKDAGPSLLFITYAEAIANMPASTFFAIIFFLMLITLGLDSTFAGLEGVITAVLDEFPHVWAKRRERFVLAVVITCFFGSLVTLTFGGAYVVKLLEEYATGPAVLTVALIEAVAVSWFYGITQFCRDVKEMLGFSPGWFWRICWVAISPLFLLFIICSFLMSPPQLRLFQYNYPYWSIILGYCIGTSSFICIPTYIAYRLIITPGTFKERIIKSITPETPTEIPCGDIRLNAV

Molecule	Ki [2] [nM]	Ki [3] [nM]	inhibition in vivo at 10 mg/kg [1, 4] [%]	inhibition in vivo at 10 mg/kg [1] [%]	% Inhibition of Allodynia +/− SEM ([1]; male Sprague-Dawley rats, subcutaneous single dose 30 mg/kg, contralateral PWT at 2 hour after dose, mean of eight animals)
Fc1ccccc1-n1nc(OC2CCNCC2)c2ccccc21 [Example 1, 1-(2-Fluorophenyl)-3-(piperidin-4-yloxy)-1H-indazole hydrochloride]	51.1	3.14	–	67.7	–
c1ccc(-n2nc(OC3CCNCC3)c3ccccc32)cc1 [Example 20, 1-Phenyl-3-(piperidin-4-yloxy)-1H-indazole hydrochloride]	122	20.2	41.1	–	–
Fc1ccc(F)c(-n2nc(OC3CCNCC3)c3ccccc32)c1 [Example 27, 1-(2,5-Difluoro-phenyl)-3-(piperidin-4-yloxy)-1H-indazole hydrochloride]	42.3	6.34	27	–	–
Fc1ccc(-n2nc(OC3CCNCC3)c3ccccc32)cc1 [Example 42, 1-(4-Fluoro-phenyl)-3-(piperidin-4-yloxy)-1H-indazole hydrochloride]	81	25.9	31.7	–	–
Fc1cccc(-n2nc(OC3CCNCC3)c3ccccc32)c1 [Example 43, 1-(3-Fluoro-phenyl)-3-(piperidin-4-yloxy)-1H-indazole hydrochloride]	138	17.9	55.4	–	–
Clc1ccc2c(c1)c(OC1CCNCC1)nn2-c1ccccc1 [Example 101, 5-Chloro-1-phenyl-3-(piperidin-4-yloxy)-1H-indazole hydrochloride]	304	607	–	–	–
Fc1ccccc1-n1nc(OC2CCNCC2)c2cc(Cl)ccc21 [Example 102, 5-Chloro-1-(2-fluoro-phenyl)-3-(piperidin-4-yloxy)-1H-indazole hydrochloride]	129	71.5	–	–	–
Fc1cccc2c1c(OC1CCNCC1)nn2-c1ccccc1 [Example 103, 4-Fluoro-1-phenyl-3-(piperidin-4-yloxy)-1H-indazole hydrochloride]	293	34.1	–	–	–
c1ccc(-n2nc(OC[C@@H]3CNCCO3)c3cccnc32)cc1 [Example 105, (S)-(+)-3-(Morpholin-2-ylmethoxy)-1-phenyl-1H-pyrazolo[3,4-b]pyridine hydrochloride]	4240	294	–	–	–
Fc1ccc2c(c1)c(OC1CCNCC1)nn2-c1c(F)cccc1F [Example 108, 1-(2,6-Difluoro-phenyl)-5-fluoro-3-(piperidin-4-yloxy)-1H-indazole hydrochloride]	43	5.72	–	–	–
Fc1cccc(F)c1-n1nc(OC2CCNCC2)c2c(F)cccc21 [Example 109, 1-(2,6-Difluoro-phenyl)-4-fluoro-3-(piperidin-4-yloxy)-1H-indazole hydrochloride]	279	46.2	–	–	–
Fc1cccc(F)c1-n1nc(OC[C@H]2CCCNC2)c2c(F)cccc21 [Example 110, (S)-1-(2,6-Difluorophenyl)-4-fluoro-3-(piperidin-3-ylmethoxy)-1H-indazole hydrochloride]	422	16.3	–	–	–
(S)-1-(2,6-Difluoro-phenyl)-3-(morpholin-2-ylmethoxy)-1H-indazole hydrochloride [Example 24]	5430	9.65	–	–	–
(S)-(−)-5-Fluoro-1-(2-fluorophenyl)-3-(piperidin-3-ylmethoxy)-1H-indazole hydrochloride [Example 47]	47	13	–	–	–

Continued, in another order:

Ki [2] [nM]	Ki [3] [nM]	Molecule	inhibition in vivo at 10 mg/kg [1, 4] [%]	inhibition in vivo at 10 mg/kg [1] [%]	% Inhibition of Allodynia +/− SEM ([1]; male Sprague-Dawley rats, subcutaneous single dose 30 mg/kg, contralateral PWT at 2 hour after dose, mean of eight animals)
134	6.58	Fc1ccc(F)c(-n2nc(OCC3CCCNC3)c3ccccc32)c1 (racemic) [Example 31, (±)-1-(2,5-Difluoro-phenyl)-3-(piperidin-3-ylmethoxy)-1H-indazole hydrochloride]	47	–	–
52.2	18.1	Fc1ccc2c(c1)c(OCC1CCCNC1)nn2-c1ccccc1F (racemic) [Example 57, (±)-5-Fluoro-1-(2-fluoro-phenyl)-3-(piperidin-3-ylmethoxy)-1H-indazole hydrochloride]	26	–	–
54.7	5.3	Cl.Fc1ccccc1-n1nc(OC[C@H]2CCNC2)c2ccccc21 [Example 7, (S)-(−)-1-(2-Fluorophenyl)-3-(pyrrolidin-3-ylmethoxy)-1H-indazole hydrochloride]	12.2	–	71.5 +/− 4.6%
39	5.19	Fc1ccc(-n2nc(OC[C@H]3CCNC3)c3ccccc32)c(F)c1 [Example 8, (S)-1-(2,4-Difluoro-phenyl)-3-(pyrrolidin-3-ylmethoxy)-1H-indazole hydrochloride]	11.5	–	–
81.6	5.63	Fc1ccc(-n2nc(OC[C@@H]3CCNC3)c3ccccc32)c(F)c1 [Example 9, (R)-1-(2,4-Difluoro-phenyl)-3-(pyrrolidin-3-ylmethoxy)-1H-indazole hydrochloride]	34.1	–	–
100	13.1	c1ccc(-n2nc(OC[C@@H]3CCNC3)c3ccccc32)cc1 [Example 14, (R)-1-Phenyl-3-(pyrrolidin-3-ylmethoxy)-1H-indazole hydrochloride]	30.8	–	–
64.6	4.44	Fc1ccc(F)c(-n2nc(OC[C@@H]3CCNC3)c3ccccc32)c1 [Example 30, (R)-1-(2,5-Difluoro-phenyl)-3-(pyrrolidin-3-ylmethoxy)-1H-indazole hydrochloride]	68	–	–
33.6	3.41	Fc1ccc(F)c(-n2nc(OC[C@H]3CCNC3)c3ccccc32)c1 [Example 32, (S)-1-(2,5-Difluoro-phenyl)-3-(pyrrolidin-3-ylmethoxy)-1H-indazole hydrochloride]	60.7	–	–
47.5	3.2	Fc1ccc2c(c1)c(OC[C@H]1CCCNC1)nn2-c1ccccc1F [Example 45, (S)-(−)-5-Fluoro-1-(2-fluorophenyl)-3-(piperidin-3-ylmethoxy)-1H-indazole maleate]	46.2	–	–
259	319	Fc1ccc2c(c1)c(OCC1CCCNC1)nn2-c1ccccn1 (centres unmarked) [Example 99, 5-Fluoro-3-(piperidin-3-ylmethoxy)-1-pyridin-2-yl-1H-indazole hydrochloride]	–	–	–
1580	89	c1ccc(-n2nc(OC[C@H]3CCCNC3)c3cccnc32)cc1 [Example 104, (S)-(−)-1-Phenyl-3-(piperidin-3-ylmethoxy)-1H-pyrazolo[3,4-b]pyridine hydrochloride]	–	–	–
